Measurements from patent US12201618B2 (Biohaven Therapeutics Ltd., priority 2018, dated 2025).

How the values were obtained:
[1] = test system: patients diagnosed with Alzheimer's disease of mild-to-moderate severity; assay: T2 Protect AD Phase 2/3 trial: ADAS-Cog 11; format: in vivo, human; conditions: for ADAS-Cog Total Score Week 48 Model Estimates LSMean (SE): Week 48, change from baseline; for ADAS-Cog Total Score Week 48 Model Estimates LSMean (SE) Difference: Week 48, placebo vs troriluzole
Text: (§1) The ADAS-Cog 11 evaluates memory (word recall, word recognition), reasoning (following commands), language (naming, comprehension), orientation, ideational praxis (placing a letter in an envelope) and constructional praxis (copying geometric designs). Ratings of spoken language, language comprehension, word finding difficulty, and ability to remember test instructions are also obtained. The test is scored in terms of errors, with higher scores reflecting poorer performance and greater impairment. Scores can range from 0 (best) to 70 (worse).
The primary efficacy endpoint is the within-participant change in ADAS-Cog 11 from baseline to week 48, compared between the treatment group and the placebo group.
as §1, with “11 (Rosen, Mohs, & Davis, 1984) is a structured scale that” for “11”
(§2) The T2 Protect AD trial has been conducted, which is a Phase 2/3, randomized, double-blind, placebo-controlled study evaluating the efficacy and safety of troriluzole in patients diagnosed with Alzheimer's disease of mild-to-moderate severity (Mini-Mental State Examination [MMSE] scores of 14-24; mild: 20-24, moderate: 14-19).

[2] = test system: patients diagnosed with Alzheimer's disease of mild-to-moderate severity; assay: T2 Protect AD Phase 2/3 trial: volumetric hippocampal MRI; format: in vivo, human; conditions: for Hippocampal Volume Change Week 48 Model Estimates LSMean (SE) Difference: Week 48, placebo vs troriluzole
Text: vMRI allows the in vivo assessment of brain structure volume and provides a measure of atrophy rate. […] Atrophy of the medial temporal lobe, including hippocampus and entorhinal cortex, has long been described in vMRI studies of AD. Hippocampal volume derived from MRI correlates with histological hippocampal volume and degree of neuronal loss and AD pathology, and entorhinal cortical thickness change appears to be an early and sensitive indicator of neurodegeneration associated with AD (Holland et al., 2009; Jack et al., 2004).
Participants will undergo vMRI scans of the brain at screening, week 24 and week 48 in order to assess for changes in brain volumes that may be associated with clinical change due to treatment with BHV-4157.
Volumetric MRI scans will use the same imaging protocol, which will include a localizer scan, a 3D T1weighted sagittal acquisition (MPRAGE or IR-SPGR), a T2-weighted FLAIR axial acquisition, a T2* gradient recalled echo axial acquisition for magnetic susceptibility, and a diffusion weighted axial acquisition to assess for restricted diffusion.
Images will be checked for image quality and adherence to scanning protocols. 3D T1-weighted datasets passing quality checks will be corrected for spatial distortion and for intensity variation. Screening and follow-up datasets for each participant will be spatially registered to one another using rigid-body registration followed by nonlinear registration and neuroanatomic parcellation to quantify whole-brain and subregional volumetric change on a patient-by patient basis.
Whole brain volume (WBV, excluding cerebellum), bilateral ventricular volume and bilateral hippocampal volume will be measured. Quantitative anatomical regional change (Quarc) will be used as the computational MR image processing application. Detail for the statistical computations is given in the Statistical Analytical Plan (SAP).
as §2

[3] = test system: patients diagnosed with Alzheimer's disease of mild-to-moderate severity; assay: T2 Protect AD Phase 2/3 trial: CDR-Sum of Boxes; format: in vivo, human; conditions: for CDR01-Sum of Boxes Week 48 Model Estimates LSMean (SE): Week 48, change from baseline; for CDR01-Sum of Boxes Week 48 Model Estimates LSMean (SE) Difference: Week 48, placebo vs troriluzole
Text: The CDR-SOB (Hughes, Berg, Danziger, Coben, & Martin, 1982) is a validated composite rating of cognition and everyday functioning used in longitudinal AD research which incorporates both informant input and direct assessment of performance. It assesses through semi structured interview 3 cognitive domains including memory, orientation, and judgement/problem solving and 3 everyday functional domains including community affairs, home and hobbies and personal care. There are 5 levels of impairment from none CDR=0 to severe CDR=3. The individual domain scores are added to create a sum of the box scores.
as §2

[4] = test system: patients diagnosed with Alzheimer's disease of mild-to-moderate severity; assay: T2 Protect AD Phase 2/3 trial: neuropsychiatric inventory (NPI); format: in vivo, human; conditions: after 48 weeks
Text: The NPI is a well-validated, reliable, multi-item instrument to assess psychopathology in AD dementia based on the results of an interview with the study partner (Cummings, 1997). The NPI evaluates both the frequency and severity of 10 neuropsychiatric features, including delusions, hallucinations, agitation/aggression, dysphoria, anxiety, euphoria, apathy, disinhibition, irritability and lability, and aberrant motor behavior, as well as evaluates sleep and appetite/eating disorders. Frequency assessments range from 1 (occasionally, less than once per week) to 4 (very frequently, once or more per day or continuously). Severity assessments range from 1 (mild) to 3 (severe). The score for each subscale is the product of severity and frequency and the total score is the sum of all subscales.
as §2

[5] = taken with meals; cited from earlier work
[6] = mild-to-moderate AD, all patients, Week 48
[7] = mild-to-moderate AD, all patients

With `CN(CC(=O)Nc1nc2ccc(OC(F)(F)F)cc2s1)C(=O)CNC(=O)CN` [Troriluzole] the “ADAS-Cog Total Score Week 48 Analysis Value Mean (SD)” value ([1]; Mild AD Patients Only, Week 48) was 26.2 (8.22), the “ADAS-Cog Total Score Week 48 Analysis Value Median” value ([1]; Mild AD Patients Only, Week 48) was 26.0 and the “ADAS-Cog Total Score Week 48 Change from Baseline Mean (SD)” value ([1]; Mild AD Patients Only, Week 48) was 3.9 (5.90). The “ADAS-Cog Total Score Week 48 Change from Baseline Median” value ([1]; Mild AD Patients Only, Week 48) was 4.0, the “ADAS-Cog Total Score Week 48 Model Estimates LSMean (SE)” value ([1]; Mild AD Patients Only) was 4.2 (0.76) and the “ADAS-Cog Total Score Week 48 Model Estimates LSMean (SE) Difference” value ([1]; Mild AD Patients Only) was 0.7 (1.02). For the same molecule, the “ADAS-Cog11 score LS mean change difference versus placebo” value ([1]; mild AD, after 48 weeks, 95% CI: −1.4, 2.7, p-value=0.5233) was 0.7, the “LS mean change from baseline on the ADAS-Cog11 score” value ([1]; mild AD, after 48 weeks, n=65) was 4.2 points and the “ADAS-Cog Total Score Week 48 Analysis Value Median” value [1, 6] was 30.0. The “ADAS-Cog Total Score Week 48 Change from Baseline Mean (SD)” value [1, 6] was 5.8 (7.40), the “ADAS-Cog Total Score Week 48 Change from Baseline Median” value [1, 6] was 6.0 and the “ADAS-Cog Total Score Week 48 Analysis Value Mean (SD)” value ([1]; mild-to-moderate AD, all patients, Week 48, 280 mg once daily) was 31.5 (10.82). For the same molecule, the “ADAS-Cog Total Score Week 48 Model Estimates LSMean (SE)” value [1, 7] was 6.7 (0.70), the “ADAS-Cog Total Score Week 48 Model Estimates LSMean (SE) Difference” value [1, 7] was 0.0 (0.93) and the “Hippocampal Volume Change Week 48 Analysis Value Mean (SD)” value ([2]; Mild AD Patients Only) was −1.1 (1.61). The “Hippocampal Volume Change Week 48 Analysis Value Median” value ([2]; Mild AD Patients Only) was −0.9, the “Hippocampal Volume Change Week 48 Model Estimates LSMean (SE)” value ([2]; Mild AD Patients Only) was −1.1 (0.27) and the “Hippocampal Volume Change Week 48 Model Estimates LSMean (SE) Difference” value ([2]; Mild AD Patients Only) was −0.5 (0.38). For the same molecule, the “hippocampal volume LS mean percent deformation change difference versus placebo” value ([2]; mild AD, after 48 weeks, 95% CI: −1.2, 0.3, p-value=0.2240) was −0.5%, the “LS mean percent deformation change from baseline hippocampal volume” value ([2]; mild AD, after 48 weeks, n=48) was −1.1% and the “Hippocampal Volume Change Week 48 Analysis Value Mean (SD)” value [2, 7] was −1.1 (1.50). For the same molecule, the “Hippocampal Volume Change Week 48 Analysis Value Median” value [2, 7] was −0.9, the “Hippocampal Volume Change Week 48 Model Estimates LSMean (SE)” value [2, 7] was −1.1 (0.18) and the “Hippocampal Volume Change Week 48 Model Estimates LSMean (SE) Difference” value [2, 7] was 0.0 (0.26). The “CDR01-Sum of Boxes Week 48 Analysis Value Mean (SD)” value ([3]; Mild AD Patients Only) was 7.1 (2.79), the “CDR01-Sum of Boxes Week 48 Analysis Value Median” value ([3]; Mild AD Patients Only) was 6.5 and the “CDR01-Sum of Boxes Week 48 Change from Baseline Mean (SD)” value ([3]; Mild AD Patients Only) was 1.4 (2.06). For the same molecule, the “CDR01-Sum of Boxes Week 48 Change from Baseline Median” value ([3]; Mild AD Patients Only) was 1.0, the “CDR01-Sum of Boxes Week 48 Model Estimates LSMean (SE)” value ([3]; Mild AD Patients Only) was 1.7 (0.29) and the “CDR01-Sum of Boxes Week 48 Model Estimates LSMean (SE) Difference” value ([3]; Mild AD Patients Only) was −0.3 (0.40). For the same molecule, the “CDR01-Sum of Boxes Week 48 Analysis Value Mean (SD)” value [3, 7] was 8.3 (3.24), the “CDR01-Sum of Boxes Week 48 Analysis Value Median” value [3, 7] was 8.0 and the “CDR01-Sum of Boxes Week 48 Change from Baseline Mean (SD)” value [3, 7] was 1.9 (2.37). The “CDR01-Sum of Boxes Week 48 Change from Baseline Median” value [3, 7] was 2.0, the “CDR01-Sum of Boxes Week 48 Model Estimates LSMean (SE)” value [3, 7] was 2.1 (0.21) and the “CDR01-Sum of Boxes Week 48 Model Estimates LSMean (SE) Difference” value [3, 7] was −0.2 (0.28). The “NPI score LS mean change difference versus placebo” value ([4]; mild AD, 95% CI: −5.99, 1.78, p-value=0.286) was −2.1, the “LS mean change from baseline on the NPI score” value ([4]; mild AD, n=62) was 2.1 points and the “NPI score LS mean change difference versus placebo” value ([4]; mild-to-moderate AD, 95% CI: −4.08, 1.10, p-value=0.258) was −1.5. For the same molecule, the “LS mean change from baseline on the NPI score” value ([4]; mild-to-moderate AD, n=120) was 2.3 points.

For `Nc1nc2ccc(OC(F)(F)F)cc2s1` [Riluzole, 6-(trifluoromethoxy)benzothiazol-2-amine], the “food effect on exposure” value [5] is given as “reduced exposure when taken with meals”.
